Test results taken from patent publication US11548888B2, “KRas G12C inhibitors” (Mirati Therapeutics, Inc., priority 2019, dated 2023).

What follows are molecules tested against T1, KRas G12C (Homo sapiens, UniProt P01116, G12C) (assay: Inhibition of KRas G12C-dependent cell growth: Phospho-ERK in NCI-H358 cells). Settings: NCI-H358 cells expressing KRas G12C; Phospho-ERK (Thr202/Tyr204) normalized to GAPDH; 3 hours compound; 4 parameter fit.
T1 construct: NCI-H358 cells (ATCC CRL-5807) express KRas G12C
T1 sequence (P01116 1-188 isoform P01116-2 G12C): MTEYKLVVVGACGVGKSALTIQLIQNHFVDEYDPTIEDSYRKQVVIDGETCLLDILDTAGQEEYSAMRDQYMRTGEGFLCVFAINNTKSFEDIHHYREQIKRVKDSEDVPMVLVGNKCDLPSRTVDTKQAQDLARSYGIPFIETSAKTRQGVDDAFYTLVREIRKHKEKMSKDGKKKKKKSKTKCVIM
Assay type: cell-based
Experimental: The cellular inhibition of KRAs G12C by exemplary compounds of the present invention was determined by measuring the amount of a downstream marker of KRas activity, phosphorylated ERK (“Phospho-ERK”).
NCI-H358 cells (ATCC CRL-5807) express KRas G12C and were grown in RPMI medium supplemented with 10% fetal bovine serum, penicillin/streptomycin and 10 mM HEPES. Cells were plated in poly-D-Lysine coated 96-well plates at a concentration of 50,000 cells/well and allowed to attach for 8-12 hours. Diluted compounds were then added at a final concentration of 0.5% DMSO. After 3 hours, the medium was removed, 150 μL of 4% formaldehyde was added and the plates were incubated for 20 minutes. The plates were washed with PBS, and permeabilized using 150 μL of ice cold 100% methanol for 10 minutes. Non-specific antibody binding to the plates was blocked using 100 μL Licor Blocking Buffer (Li-Cor Biotechnology, Lincoln Nebr.) for 1 hour at room temperature. Positive control samples and samples lacking cells were parallel processed with test samples as standards.
The amount Phospho-ERK was determined using an antibody specific for the phosphorylated form of ERK and compared to the amount of GAPDH. Primary antibodies used for detection were added as follows: Phospho-ERK (Cell Signaling cs9101) diluted 1:500 and GAPDH (Millipore MAB374) diluted 1:5000 in Licor block+0.05% Tween 20. The plates were incubated for 2 hours at room temperature. The plates were washed with PBS+0.05% Tween 20.
Secondary antibodies used to visualize primary antibodies were added as follows: Anti-rabbit-680 diluted 1:1000 and Anti-mouse-800 diluted 1:1000 in Licor Block+0.05% Tween 20 and incubated for 1 hour at room temperature. The plates were washed with PBS+0.05% Tween 20. A 100 μL aliquot of PBS was added to each well and the plates were read on a LICOR AERIUS plate reader.
The pERK(Thr202/Tyr204) signal was normalized with the GAPDH signal and percent of DMSO control values were calculated. IC50 values were generated using a 4 parameter fit of the dose response curve.

Compound	IC50
C=CC(=O)N1CCN(c2nc(OC[C@@H]3CCCN3C)nc3c(F)c(-c4cccc5cccc(C)c45)ncc23)C[C@@H]1CC#N [Example 10, 2-[(2S)-4-[8-fluoro-7-(8-methyl-1-naphthyl)-2-[[(2S)-1-methylpyrrolidin-2-yl]methoxy]pyrido[4,3-d]pyrimidin-4-yl]-1-prop-2-enoyl-piperazin-2-yl]acetonitrile]	0.002 µM
C=C(F)C(=O)N1CCN(c2nc(OC[C@@H]3CCCN3C)nc3c(F)c(-c4cccc5cccc(Cl)c45)ncc23)C[C@@H]1CC#N [Example 18, 2-((S)-4-(7-(8-chloronaphthalen-1-yl)-8-fluoro-2-(((S)-1-methylpyrrolidin-2-yl)methoxy)pyrido[4,3-d]pyrimidin-4-yl)-1-(2-fluoroacryloyl)piperazin-2-yl)acetonitrile]	0.05 µM
C#Cc1cccc2cccc(-c3ncc4c(N5CCN(C(=O)C(=C)F)[C@@H](CC#N)C5)nc(OC[C@@H]5CCCN5C)nc4c3F)c12 [Example 212, 2-((S)-4-(7-(8-ethynylnaphthalen-1-yl)-8-fluoro-2-(((S)-1-methylpyrrolidin-2-yl)methoxy)pyrido[4,3-d]pyrimidin-4-yl)-1-(2-fluoroacryloyl)piperazin-2-yl)acetonitrile]	0.007 µM
C=C(F)C(=O)N1CCN(c2nc(OCC3CCC4(CO)CCCN34)nc3c(F)c(-c4cccc5ccc(F)c(Cl)c45)ncc23)C[C@@H]1CC#N (stereo partly drawn) [Example 217, 2-((2S)-4-(7-(8-chloro-7-fluoronaphthalen-1-yl)-8-fluoro-2-((7a-(hydroxymethyl)hexahydro-1H-pyrrolizin-3-yl)methoxy)pyrido[4,3-d]pyrimidin-4-yl)-1-(2-fluoroacryloyl)piperazin-2-yl)acetonitrile]	0.011 µM
C=C(F)C(=O)N1CCN(c2nc(OC[C@@H]3CC(F)(F)CN3C)nc3c(F)c(-c4cccc5cccc(Cl)c45)ncc23)C[C@@H]1CC#N [Example 21, 2-((S)-4-(7-(8-chloronaphthalen-1-yl)-2-(((S)-4,4-difluoro-1-methylpyrrolidin-2-yl)methoxy)-8-fluoropyrido[4,3-d]pyrimidin-4-yl)-1-(2-fluoroacryloyl)piperazin-2-yl)acetonitrile]	0.105 µM
C=C(F)C(=O)N1CCN(c2nc(OC[C@@H]3CCCN3C)nc3c(F)c(-c4cccc5cccc(C)c45)ncc23)C[C@@H]1CC#N [Example 11, 2-[(2S)-4-[8-fluoro-7-(8-methyl-1-naphthyl)-2-[[(2S)-1-methylpyrrolidin-2-yl]methoxy]pyrido[4,3-d]pyrimidin-4-yl]-1-(2-fluoroprop-2-enoyl)piperazin-2-yl]acetonitrile]	0.084 µM
C=C(F)C(=O)N1CCN(c2nc(OC3CCN(C)CC3)nc3c(F)c(-c4cccc5cccc(Cl)c45)ncc23)C[C@@H]1CC#N [Example 70]	0.456 µM
C=CC(=O)N1CC[C@@H]2[C@H]1CN2c1ncnc2c(F)c(-c3cccc4sccc34)ncc12 [Example 276]	6.61 µM
C=CC(=O)N1C[C@H](C)N(c2ncnc3c(F)c(-c4cccc5ccc(F)c(Cl)c45)ncc23)[C@@H](C)C1 [Example 148]	6.28 µM
C=CC(=O)N1C2CCC1CN(c1nc(OC[C@@H]3CCCN3C)nc3c(F)c(-c4cc(O)cc5ccccc45)ncc13)C2 [Example 9, 1-[3-[8-fluoro-7-(3-hydroxy-1-naphthyl)-2-[[(2S)-1-methylpyrrolidin-2-yl]methoxy]pyrido[4,3-d]pyrimidin-4-yl]-3,8-diazabicyclo[3.2.1]octan-8-yl]prop-2-en-1-one]	0.142 µM
CN1C[C@H](F)C[C@H]1COc1nc(N2CCN(C(=O)/C=C/CF)[C@@H](CC#N)C2)c2cnc(-c3cccc4cccc(Cl)c34)c(F)c2n1 [Example 43, 2-[(2S)-4-[7-(8-chloro-1-naphthyl)-8-fluoro-2-[[(2S,4R)-4-fluoro-1-methyl-pyrrolidin-2-yl]methoxy]pyrido[4,3-d]pyrimidin-4-yl]-1-[(E)-4-fluorobut-2-enoyl]piperazin-2-yl]acetonitrile]	0.004 µM
C#Cc1c(F)ccc2cccc(-c3ncc4c(N5C[C@@H]6[C@H]5CCN6C(=O)C=C)nc(N5CC(N(C)C)C5)nc4c3F)c12 [Example 297]	0.004 µM
N#CC[C@H]1CN(c2ncnc3c(F)c(-c4cccc5ccc(F)c(Cl)c45)ncc23)CCN1C(=O)/C=C/C(F)F [Example 115]	0.076 µM
C=C(F)C(=O)N1CCN(c2nc(OC[C@H]3[C@H](F)CCN3C)nc3c(F)c(-c4cccc5ccc(F)c(Cl)c45)ncc23)C[C@@H]1CC#N [Example 168]	0.065 µM
C=C(F)C(=O)N1CCN(c2nc(OCC3(C)CCN3C)nc3c(F)c(-c4cccc5ccc(F)c(Cl)c45)ncc23)C[C@@H]1CC#N (some centres unmarked) [Example 161]	0.011 µM
C=C(F)C(=O)N1CCN(c2nc(OC[C@H]3CN(C)C[C@H]3F)nc3c(F)c(-c4cccc5ccc(F)c(Cl)c45)ncc23)C[C@@H]1CC#N [Example 193]	0.067 µM
C=C(F)C(=O)N1CCN(c2nc(OCC34CCCN3C(CO)CC4)nc3c(F)c(-c4cccc5ccc(F)c(Cl)c45)ncc23)C[C@@H]1CC#N (some centres unmarked) [Example 216, 2-((2 S)-4-(7-(8-chloro-7-fluoronaphthalen-1-yl)-8-fluoro-2-((3-(hydroxymethyl)tetrahydro-1H-pyrrolizin-7a(5H)-yl)methoxy)pyrido[4,3-d]pyrimidin-4-yl)-1-(2-fluoroacryloyl)piperazin-2-yl)acetonitrile]	0.121 µM
C=C(F)C(=O)N1CCN(c2nc(OC[C@@H]3CCCN3CCF)nc3c(F)c(-c4cccc5ccc(F)c(Cl)c45)ncc23)C[C@@H]1CC#N [Example 182]	0.027 µM
C=C(F)C(=O)N1CCN(c2nc(OC[C@@H]3CCN(C)C3)nc3c(F)c(-c4cccc5ccc(F)c(Cl)c45)ncc23)C[C@@H]1CC#N [Example 169]	0.06 µM
C=C(F)C(=O)N1CCN(c2nc(OCC3CCN3C(C)(C)C)nc3c(F)c(-c4cccc5cccc(Cl)c45)ncc23)C[C@@H]1CC#N (stereo partly drawn) [Example 59, 2-[(2S)-4-[2-[(1-tert-butylazetidin-2-yl)methoxy]-7-(8-chloro-1-naphthyl)-8-fluoro-pyrido[4,3-d]pyrimidin-4-yl]-1-(2-fluoroprop-2-enoyl)piperazin-2-yl]acetonitrile]	0.06 µM
C=CC(=O)N1CCN(c2nc(OC[C@@H]3CCCN3C)nc3c(F)c(-c4cccc5ccc(F)c(Cl)c45)ncc23)CC1C(F)F (some centres unmarked) [Example 165]	0.158 µM
C=CC(=O)N1CC[C@@H]2[C@H]1[C@H](C)N2c1ncnc2c(F)c(-c3cccc4ccc(F)c(Cl)c34)ncc12 [Example 280]	0.09 µM
C=C(F)C(=O)N1CCN(c2nc(OC[C@H]3[C@@H](F)CCN3C)nc3c(F)c(-c4cccc5ccc(F)c(Cl)c45)ncc23)C[C@@H]1CC#N [Example 177]	0.051 µM
C=CC(=O)N1CCC2(C1)CN(c1ncnc3c(F)c(-c4cccc5ccc(F)c(Cl)c45)ncc13)C2 [Example 138]	7.17 µM
C=C(F)C(=O)N1CCN(c2nc(OCCCN3C[C@@H]4C[C@H]3CO4)nc3c(F)c(-c4cncc5cccc(C)c45)ncc23)C[C@@H]1CC#N [Example 38, 2-[(2S)-4-[8-fluoro-7-(5-methyl-4-isoquinolyl)-2-[3-[(1S,4S)-2-oxa-5-azabicyclo[2.2.1]heptan-5-yl]propoxy]pyrido[4,3-d]pyrimidin-4-yl]-1-(2-fluoroprop-2-enoyl)piperazin-2-yl]acetonitrile]	0.338 µM
C=CC(=O)N1CC[C@@H]2[C@H]1CN2c1nc(OC[C@@H]2[C@H]3C[C@H]3CN2C)nc2c(F)c(-c3cccc4ccc(F)c(Cl)c34)ncc12 [Example 253]	0.035 µM
